Data set [1] is described as follows: Compound solubility in water. In kind it is physicochemical.
The target in a further data set is T1, acid ceramidase (hACR) (Homo sapiens, UniProt Q13510).
T1 construct: expressed in transfected cells; cell lysate used
T1 sequence (Q13510 143-395 limits assumed): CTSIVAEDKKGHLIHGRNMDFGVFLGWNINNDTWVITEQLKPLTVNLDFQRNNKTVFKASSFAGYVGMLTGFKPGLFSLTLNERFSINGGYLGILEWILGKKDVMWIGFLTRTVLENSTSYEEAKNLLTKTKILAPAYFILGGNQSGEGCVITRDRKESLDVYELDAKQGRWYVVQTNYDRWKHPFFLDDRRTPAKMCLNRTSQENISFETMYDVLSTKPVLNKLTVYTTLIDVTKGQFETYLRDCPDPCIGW
T1 sequence (Q13510 22-142 limits assumed): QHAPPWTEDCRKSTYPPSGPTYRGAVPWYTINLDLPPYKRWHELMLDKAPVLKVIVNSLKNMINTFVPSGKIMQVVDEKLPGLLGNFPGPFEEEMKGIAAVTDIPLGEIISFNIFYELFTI
Put plainly: Acid ceramidase inhibition, biochemical fluorescent assay with cell lysates overexpressing acid ceramidase, substrate Rbm14-12. Particulars: cell lysates overexpressing acid ceramidase; 1 hr preincubation at RT; pH 4.5; substrate Rbm14-12 6.3 μM; read-out: hACR IC50. The method, boiled down:
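Enzyme source was lysate (10 µg protein) from cells overexpressing acid ceramidase, preincubated 1 hr at RT with compound dose series in 25 mM NaAc, 100 mM NaCl, pH 4.5. Rbm14-12 (6.3 μM final) reacted 1 hr at RT; stop buffer (methanol, NaIO4, glycine, pH 10.6) 1 hr, fluorescence ex360/em446; IC50 from four-parameter fit.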

Values after ≈ are worked out from the molar mass of the structure shown.

The values that follow come from patent US20220380314A1, “SUBSTITUTED, SATURATED AND UNSATURATED N-HETEROCYCLIC CARBOXAMIDES AND RELATED COMPOUNDS FOR THEIR USE IN THE TREATMENT OF MEDICAL DISORDERS” (Bial - R&D Investments, S.A., priority 2019, published 2022).

Compound `CC1(C)CCc2ccccc2N1C(=O)NCCOc1ccccc1` [Example 18, 2,2-Dimethyl-N-(2-phenoxyethyl)-3,4-dihydroquinoline-1(2)-carboxamide] registered a solubility in data set [1] of 1.5 µM (≈ 0.487 µg/mL). Further, the IC50 at acid ceramidase (hACR) fell in the range of 200 to 1000 nM.

`CC1(C)CCc2ncccc2N1C(=O)NCCc1ccccc1` [Example 9, 2,2-Dimethyl-N-phenethyl-3,4-dihydro-1,5-naphthyridine-1(2H)-carboxamide] gave a solubility in data set [1] of 25.2 µM (≈ 7.8 µg/mL). For the same compound, the IC50 at acid ceramidase (hACR) was greater than 1000 nM.

Consider `CC1(C)Cc2ccccc2CN1C(=O)NCCc1ccccc1` [Example 22, 3,3-Dimethyl-N-phenethyl-3,4-dihydroisoquinoline-2(1H)-carboxamide], for which the solubility in data set [1] came out at 5.7 µM (≈ 1.76 µg/mL). In addition, the IC50 on acid ceramidase (hACR) was 200 to 1000 nM.

On to `CC(C)CCNC(=O)N1CCN(c2ccccc2)CC1(C)C` [Example 42, N-iso-Pentyl-2,2-dimethyl-4-phenylpiperazine-1-carboxamide], for which, in data set [1], the solubility came out at 7 µM (≈ 2.12 µg/mL). The IC50 on acid ceramidase (hACR) is greater than 1000 nM.

The compound `CN1CC(c2ccc3c(c2)N(C(=O)NCCc2ccccc2)C(C)(C)CC3)C1` [Example 50] gave a solubility in data set [1] of 32.2 µM (≈ 12.2 µg/mL). In addition, the IC50 at acid ceramidase (hACR) was less than 200 nM.

Consider `CN1CCC(c2ccc3c(c2)CCC(C)(C)N3C(=O)NCCc2ccccc2)CC1` [Example 23, 2,2-Dimethyl-6-(1-methylpiperidin-4-yl)-N-phenethyl-3,4-dihydroquinoline-1(2H)-carboxamide], for which the solubility in data set [1] amounted to 33.6 µM (≈ 13.6 µg/mL). Further, the IC50 on acid ceramidase (hACR) is 200 to 1000 nM.

In data set [1], `CC1(C)CC(Oc2ccccc2)CCN1C(=O)NCCCCc1ccccc1` (centres unmarked) [Example 89, 2,2-Dimethyl-4-phenoxy-N-(4-phenylbutyl)piperidine-1-carboxamide] yielded a solubility of 0.01 µM (≈ 0.00381 µg/mL). At acid ceramidase (hACR), the IC50 is less than 200 nM.

As to `O=C(NCCCc1ccc(F)cc1)N1CCCCC12CCCC2` [Example 58, N-(3-(4-Fluorophenyl)propyl)-6-azaspiro[4.5]decane-6-carboxamide], in data set [1], the concentration in solution (solubility) came to 3 µM (≈ 0.955 µg/mL). For the same compound, the half-maximal inhibitory concentration (IC50) at acid ceramidase (hACR) was less than 200 nM.

`CCCCCNC(=O)N1C(c2ccc(F)cc2)COCC1(C)C` (centres unmarked) [Example 137, 5-(4-Fluorophenyl)-3,3-dimethyl-N-pentylmorpholine-4-carboxamide] had a solubility in data set [1] of 93 µM (≈ 30 µg/mL). Moreover, the IC50 on acid ceramidase (hACR) was less than 200 nM.

The compound `CC1(C)CCCCN1C(=O)NCCCc1ccccc1` [Example 40, 2,2-Dimethyl-N-(3-phenylpropyl)piperidine-1-carboxamide] showed a solubility in data set [1] of 23.4 µM (≈ 6.42 µg/mL). Also, at acid ceramidase (hACR), the half-inhibitory concentration (IC50) was less than 200 nM.

Consider `CC1(C)COCCN1C(=O)NCCc1ccccc1` [Example 53, 3,3-Dimethyl-N-phenethylmorpholine-4-carboxamide], for which the solubility in data set [1] was 25.6 µM (≈ 6.72 µg/mL). At acid ceramidase (hACR), the 50% inhibitory concentration (IC50) was greater than 1000 nM.

In turn, `O=C(NCCCc1ccc(F)cc1F)N1CCCCC12CCCC2` [Example 59, N-(3-(2,4-difluorophenyl)propyl)-6-azaspiro[4.5]decane-6-carboxamide] gave a solubility in data set [1] of 1.1 µM (≈ 0.37 µg/mL). For the same compound, the IC50 on acid ceramidase (hACR) is less than 200 nM.

In data set [1], `CCCCNC(=O)N1c2cccc(C3CCN(C)CC3)c2CCC1(C)C` [Example 24, N-Butyl-2,2-dimethyl-5-(1-methylpiperidin-4-yl)-3,4-dihydroquinoline-1(2H)-carboxamide] yielded a solubility of 40.6 µM (≈ 14.5 µg/mL). Also, the IC50 at acid ceramidase (hACR) was in the range of 200 to 1000 nM.
